Assay results taken from publication PMC6855808, “Direct binding of phosphatidylglycerol at specific sites modulates desensitization of a ligand-gated ion channel” (eLife, 2019).
Values joined by “and” are separate entries in the source; they are usually repeats but may differ in a detail not shown here. Equal values may be shown once. Read-outs that look alike come from different tables or passages of the source.

Experiments:
ELIC WT [1] = test: Native MS phospholipid binding to delipidated ELIC in C10E5; parameters: species or system Erwinia chrysanthemi; conditions: binomial binding model, 32 sites of equal affinity; 1 μM ELIC in C10E5; read-out: Dissociation constant K
Method: Native MS analysis was similar to previous descriptions for other membrane proteins ([Gault et al., 2016]). For analysis of ELIC in DDM, 30 μl of purified protein in 0.02% DDM at ~1 mg/ml was buffer exchanged into 200 mM ammonium acetate pH 7.5% and 0.02% DDM using Biospin six gel filtration spin columns (Bio-Rad, Hercules, CA). 2 μl of buffer exchanged ELIC was loaded into a borosilicate capillary emitter (Thermo Scientific, Waltham, MA), and analyzed by static nanospray on a Thermo QExactive EMR mass spectrometer. The following parameters were used to resolve the ELIC pentamer and minimize dissociation into tetramer and monomer: capillary voltage of 1.2 kV, capillary temperature of 200°C, ion transfer optics set with the injection flatapole, inter-flatapole lens, bent flatapole, transfer multiple as 8, 7, 6, 4 V, respectively, resolution 8,750, AGC target 3 × 10^6, trap pressure set to maximum, CID 200 V, and CE 100 V. For analysis of ELIC in C10E5, ELIC delipidated by injecting 300 μg onto a Sephadex 200 10/300 column (GE Healthcare) at 0.5 ml/min pre-equilibrated with Buffer A, 10% glycerol, and 0.06% C10E5 (Anatrace). 30 μl aliquots were then buffer exchanged to 100 mM ammonium acetate pH 7.5, 0.06% C10E5 using Biospin six columns, and diluted to 0.2 mg/ml. MS measurements on the QExactive EMR were performed with the parameters listed above except: capillary temperature 100°C, CID 75 V and CE 200 V. For lipid binding measurements, stocks of POPG lipid were prepared at 2× the concentration of POPG being tested in 100 mM ammonium acetate pH 7.5% and 0.06% C10E5. Lipid stocks were then mixed with 0.4 mg/ml ELIC in a 1:1 vol ratio for a final concentration of 1 μM ELIC, and samples were analyzed after >5 min incubation.
MS spectra were deconvoluted using UniDec ([Marty et al., 2015]); deconvolution of spectra with bound lipid was restricted to the 26+ to 22+ charge states (Figure 1—figure supplement 3). Peak heights of apo and lipid-bound species were extracted from UniDec, and analyzed by two approaches. The average number of bound lipids was determined by the following relationship:(1) Averagenumberboundlipid=∑n=0kn\cdot In/∑n=0kIn where n is the number of bound lipids and In is the deconvoluted peak height of ELIC with n bound lipids. Peak heights of apo and lipid-bound species were also plotted as mole fraction versus the number of bound lipids (Figure 1—figure supplement 4).
Then, the probability (B) that q sites are occupied out of N total sites is given by the binomial probability function:(3) Bq=N!/q!N-q!p^N-q(1-p)^q
B(q) was used to determine the mole fraction of each lipid-bound species at a given [A], which was used to fit the native MS data in Excel across all [A] by setting K constant and varying N or vice versa.

ELIC WT [2] = test: Thermal stability assay (SEC pentamer peak after heating); type: binding, Erwinia chrysanthemi; conditions: 1 μM ELIC in C10E5, 32°C for 15 min
Method: Purified WT ELIC in C10E5 (Buffer A, 0.06% C10E5) was diluted to 1 μM in the absence or presence of various concentrations of phospholipid. Samples were analyzed without and with heating in the absence or presence of phospholipid. […] The stabilizing effect of a phospholipid was quantified as the pentamer amplitude in the presence of phospholipid (heated) divided by control (heated).

ELIC R117Q = molecular target: T1, ELIC R117Q (Dickeya chrysanthemi, UniProt P0C7B7, INS163G/R117Q); test: Excised patch-clamp recordings from giant liposomes; type: biochemical, Erwinia chrysanthemi; conditions: 25 mole% POPG
T1 construct: MBP (N, cleaved yes); made in house; host or cells: OverExpress C43 (DE3) E. coli

ELIC R299Q = molecular target: T2, ELIC R299Q (Dickeya chrysanthemi, UniProt P0C7B7, R298Q); test: as above; type: biochemical, Erwinia chrysanthemi; conditions: 25 mole% POPG
T2 construct: MBP (N, cleaved yes); made in house; host or cells: OverExpress C43 (DE3) E. coli

ELIC R301Q = molecular target: T3, ELIC R301Q (Dickeya chrysanthemi, UniProt P0C7B7, R300Q); test: as above; type: biochemical, Erwinia chrysanthemi; conditions: 25 mole% POPG
T3 construct: MBP (N, cleaved yes); made in house; host or cells: OverExpress C43 (DE3) E. coli

ELIC R123Q = molecular target: T4, ELIC R123Q (Dickeya chrysanthemi, UniProt P0C7B7, INS163G/R123Q); test: as above; type: biochemical, Erwinia chrysanthemi; conditions: 25 mole% POPG
T4 construct: MBP (N, cleaved yes); made in house; host or cells: OverExpress C43 (DE3) E. coli

ELIC L238A = molecular target: T5, ELIC L238A (Dickeya chrysanthemi, UniProt P0C7B7, L237A); test: as above; type: biochemical, Erwinia chrysanthemi; conditions: 25 mole% POPG
T5 construct: MBP (N, cleaved yes); made in house; host or cells: OverExpress C43 (DE3) E. coli

ELIC WT [3] = test: as above; conditions: for EC50: read-out: Dose response EC50 (mM cysteamine), peak current, 0.5 mM BaCl2
ELIC R117Q/R299Q = molecular target: T6, ELIC R117Q/R299Q (Dickeya chrysanthemi, UniProt P0C7B7, R117Q/R298Q); test: as above; type: biochemical, Erwinia chrysanthemi; conditions: 25 mole% POPG
T6 construct: MBP (N, cleaved yes); made in house; host or cells: OverExpress C43 (DE3) E. coli

ELIC R123Q/R299Q = molecular target: T7, ELIC R123Q/R299Q (Dickeya chrysanthemi, UniProt P0C7B7, R123Q/R298Q); test: as above; type: biochemical, Erwinia chrysanthemi; conditions: 25 mole% POPG
T7 construct: MBP (N, cleaved yes); made in house; host or cells: OverExpress C43 (DE3) E. coli

ELIC R286Q/R299Q = molecular target: T8, ELIC R286Q/R299Q (Dickeya chrysanthemi, UniProt P0C7B7, R285Q/R298Q); test: as above; type: biochemical, Erwinia chrysanthemi; conditions: 25 mole% POPG
T8 construct: MBP (N, cleaved yes); made in house; host or cells: OverExpress C43 (DE3) E. coli

ELIC R286Q = molecular target: T9, ELIC R286Q (Dickeya chrysanthemi, UniProt P0C7B7, R285Q); test: as above; type: biochemical, Erwinia chrysanthemi; conditions: 25 mole% POPG
T9 construct: MBP (N, cleaved yes); made in house; host or cells: OverExpress C43 (DE3) E. coli

ELIC R301Q/R299Q = molecular target: T10, ELIC R301Q/R299Q (Dickeya chrysanthemi, UniProt P0C7B7, R298Q/R300Q); test: as above; type: biochemical, Erwinia chrysanthemi; conditions: 25 mole% POPG
T10 construct: MBP (N, cleaved yes); made in house; host or cells: OverExpress C43 (DE3) E. coli

ELIC WT [4] = test: Sequential-mixing stopped-flow fluorescence Tl+ flux assay in liposomes; type: biochemical, Erwinia chrysanthemi; conditions: 5 mM cysteamine
[5] = molecular target: the molecule itself; test: native MS; ELIC purified in 0.02% DDM, buffer exchanged into 200 mM ammonium acetate pH 7.5, 0.02% DDM; static nanospray, Q-Exactive EMR, CID 200 V, CE 100 V; co-purified lipids bound
[6] = read-out: Cysteamine response EC50

CCCCCCCC/C=C\CCCCCCCC(=O)O[C@H](COC(=O)CCCCCCCCCCCCCCC)COP(=O)(O)OCCN [POPE, 1-palmitoyl-2-oleoyl-phosphatidylethanolamine]
Kd (ELIC WT [1]): 0.19 mM | Effect on ELIC stability against thermal denaturation (ELIC WT [2]): no effect

NCCS [cysteamine]
Activation τ (ELIC R117Q; 30 mM cysteamine): 54 ± 40 ms | Desensitization norm current at 20 s (ELIC R117Q; 30 mM cysteamine): 0.060 ± 0.020 | Desensitization weighted τ (ELIC R117Q; 30 mM cysteamine): 1.49 ± 0.40 s | EC50 (ELIC R117Q; [6]): 3.3 ± 0.9 mM | Activation τ (ELIC R299Q; 30 mM cysteamine): 71 ± 27 ms | Desensitization norm current at 20 s (ELIC R299Q; 30 mM cysteamine): 0.074 ± 0.008 | Desensitization weighted τ (ELIC R299Q; 30 mM cysteamine): 2.2 ± 0.17 s | EC50 (ELIC R299Q; [6]): 4.7 ± 0.3 mM | Activation τ (ELIC R301Q; 30 mM cysteamine): 72 ± 15 ms | Desensitization norm current at 20 s (ELIC R301Q; 30 mM cysteamine): 0.045 ± 0.017 | Desensitization weighted τ (ELIC R301Q; 30 mM cysteamine): 0.66 ± 0.28 s | EC50 (ELIC R301Q; [6]): 5.2 ± 0.8 mM | Activation τ (ELIC R123Q; 30 mM cysteamine): 112 ± 65 ms | Desensitization norm current at 20 s (ELIC R123Q; 30 mM cysteamine): 0.067 ± 0.015 | Desensitization weighted τ (ELIC R123Q; 30 mM cysteamine): 1.20 ± 0.39 s | EC50 (ELIC R123Q; [6]): 3.7 ± 0.9 mM | Activation τ (ELIC L238A; 30 mM cysteamine): 113 ± 51 ms | Desensitization norm current at 20 s (ELIC L238A; 30 mM cysteamine): 0.374 ± 0.045 | Desensitization weighted τ (ELIC L238A; 30 mM cysteamine): 5.90 ± 1.37 s | EC50 (ELIC L238A; [6]): 4.9 ± 1.1 mM | Activation τ (ELIC WT [3]; 25 mole% POPG, 30 mM cysteamine): 134 ms and 134 ± 50 ms | Desensitization norm current at 20 s (ELIC WT [3]; 25 mole% POPG, 30 mM cysteamine, normalized to peak response): 0.100 ± 0.041 | EC50 (ELIC WT [3]; 12 mole% POPG): 5.3 ± 1 mM | EC50 (ELIC WT [3]; 25 mole% POPG): 5.1 ± 1.2 mM | EC50 (ELIC WT [3]; 40 mole% POPG): 6.5 ± 1.3 mM | Activation τ (ELIC R117Q/R299Q; 30 mM cysteamine): 54 ± 26 ms | Desensitization norm current at 20 s (ELIC R117Q/R299Q; 30 mM cysteamine): 0.025 ± 0.004 | Desensitization weighted τ (ELIC R117Q/R299Q; 30 mM cysteamine): 1.13 ± 0.24 s | EC50 (ELIC R117Q/R299Q; [6]): 2.4 ± 0.7 mM | Activation τ (ELIC R123Q/R299Q; 30 mM cysteamine): 74 ± 35 ms | Desensitization norm current at 20 s (ELIC R123Q/R299Q; 30 mM cysteamine): 0.041 ± 0.005 | Desensitization weighted τ (ELIC R123Q/R299Q; 30 mM cysteamine): 1.66 ± 0.17 s | EC50 (ELIC R123Q/R299Q; [6]): 3.7 ± 0.6 mM | Activation τ (ELIC R286Q/R299Q; 30 mM cysteamine): 92 ± 27 ms | Desensitization norm current at 20 s (ELIC R286Q/R299Q; 30 mM cysteamine): 0.103 ± 0.032 | Desensitization weighted τ (ELIC R286Q/R299Q; 30 mM cysteamine): 2.08 ± 0.65 s | EC50 (ELIC R286Q/R299Q; [6]): 4.7 ± 1.5 mM | Activation τ (ELIC R286Q; 30 mM cysteamine): 106 ± 34 ms | Desensitization norm current at 20 s (ELIC R286Q; 30 mM cysteamine): 0.091 ± 0.023 | Desensitization weighted τ (ELIC R286Q; 30 mM cysteamine): 1.67 ± 0.24 s | EC50 (ELIC R286Q; [6]): 4.3 ± 0.4 mM | Activation τ (ELIC R301Q/R299Q; 30 mM cysteamine): 71 ± 21 ms | Desensitization norm current at 20 s (ELIC R301Q/R299Q; 30 mM cysteamine): 0.030 ± 0.017 | Desensitization weighted τ (ELIC R301Q/R299Q; 30 mM cysteamine): 0.45 ± 0.28 s | EC50 (ELIC R301Q/R299Q; [6]): 3.9 ± 0.9 mM

CCCCCCCC/C=C\CCCCCCCC(=O)O[C@H](COC(=O)CCCCCCCCCCCCCCC)COP(=O)([O-])OCC[N+](C)(C)C [POPC, 1-palmitoyl-2-oleoyl-phosphatidylcholine]
Kd (ELIC WT [1]): 0.28 mM | Fold faster rate of desensitization in POPC liposomes vs POPC:POPE:POPG liposomes (ELIC WT [4]): more than 20 fold | Activation τ (ELIC WT [4]; liposome composition as labelled, double exponential fit, fast component): 39 ± 17 ms | Desensitization τ (ELIC WT [4]; liposome composition as labelled, double exponential fit, slow component): 0.42 ± 0.05 s | Effect on ELIC stability against thermal denaturation (ELIC WT [2]): no effect

B1: Erwinia ligand-gated ion channel (ELIC), wild type (natural protein, Erwinia chrysanthemi, UniProt P0C7B7 1-321, looked up)
chain: APADNAADARPVDVSVSIFINKIYGVNTLEQTYKVDGYIVAQWTGKPRKTPGDKPLIVENTQIERWINNGLWVPALEFINVVGSPDTGNKRLMLFPDGRVIYNARFLGSFSNDMDFRLFPFDRQQFVLELEPFSYNNQQLRFSDIQVYTENIDNEEIDEWWIRKASTHISDIRYDHLSSVQPNQNEFSRITVRIDAVRNPSYYLWSFILPLGLIIAASWSVFWLESFSERLQTSFTLMLTVVAYAFYTSNILPRLPYTTVIDQMIIAGYGSIFAAILLIIFAHHRQAMGVEDDLLIQRCRLAFPLGFLAIGCVLVIRGITL
notes: Erwinia ligand-gated ion channel (ELIC), a pentameric ligand-gated ion channel of Erwinia chrysanthemi; expressed from pET26-MBP-ELIC (Addgene plasmid 39239); MBP was removed with HRV-3C protease before size exclusion; also called ELIC WT; WT; source: OverExpress C43 (DE3) E. coli, purified (membranes solubilized in DDM, amylose resin, HRV-3C digestion, size exclusion)
stoichiometry N [5]: 5
